Laboratory results published in BindingDB's records for doi:10.1021/jm0704550 (Cnrs, 2007).
Values belong to the compound of their own block, whether it stands above or below them.

Target: Growth hormone secretagogue receptor type 1 (Homo sapiens, UniProt Q92847)
Experiment: Receptor Binding Studies

Chain of Growth hormone secretagogue receptor type 1 (Q92847 whole entry): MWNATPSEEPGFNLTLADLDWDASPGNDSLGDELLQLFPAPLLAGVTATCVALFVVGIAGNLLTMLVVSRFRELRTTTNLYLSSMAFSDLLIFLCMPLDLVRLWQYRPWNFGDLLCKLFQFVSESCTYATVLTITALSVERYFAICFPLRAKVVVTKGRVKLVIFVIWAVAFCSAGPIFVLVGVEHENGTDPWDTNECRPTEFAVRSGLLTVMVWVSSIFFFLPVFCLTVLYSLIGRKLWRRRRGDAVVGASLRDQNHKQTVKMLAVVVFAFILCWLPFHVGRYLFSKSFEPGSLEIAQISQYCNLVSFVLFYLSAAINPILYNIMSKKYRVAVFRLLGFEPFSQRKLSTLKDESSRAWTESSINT

SMILES: O=C(N[C@H](Cc1c[nH]c2ccccc12)c1nnc(CCc2ccccc2)n1Cc1ccccn1)C1CCCNC1 (stereo partly drawn) [N-[(1R)-2-(1H-indol-3-yl)-1-[5-(2-phenylethyl)-4-(pyridin-2-ylmethyl)-4H-1,2,4-triazol-3-yl]ethyl]piperidine-3-carboxamide]
- IC50 (pH 7.3, 25 °C): > 1000 nM

SMILES: O=C(N[C@H](Cc1c[nH]c2ccccc12)c1nnc(CCc2ccccc2)n1Cc1ccco1)C1CCNCC1 [N-[(1R)-1-[4-(furan-2-ylmethyl)-5-(2-phenylethyl)-4H-1,2,4-triazol-3-yl]-2-(1H-indol-3-yl)ethyl]piperidine-4-carboxamide]
- EC50: 183 nM
- IC50: 560 nM

SMILES: O=C(N[C@H](Cc1c[nH]c2ccccc12)c1nnc(Cc2ccccc2)n1Cc1ccccn1)C1CCNCC1 [N-[(1R)-1-[5-benzyl-4-(pyridin-2-ylmethyl)-4H-1,2,4-triazol-3-yl]-2-(1H-indol-3-yl)ethyl]piperidine-4-carboxamide]
- IC50: > 1000 nM

SMILES: COc1ccc(Cn2c(CCc3ccccc3)nnc2[C@@H](Cc2c[nH]c3ccccc23)NC(=O)C2CCNCC2)c(OC)c1 [N-[(1R)-1-{4-[(2,4-dimethoxyphenyl)methyl]-5-(2-phenylethyl)-4H-1,2,4-triazol-3-yl}-2-(1H-indol-3-yl)ethyl]piperidine-4-carboxamide]
- EC50: 6.1 nM

SMILES: COc1ccc(Cn2c(CCc3c[nH]c4ccccc34)nnc2[C@@H](Cc2c[nH]c3ccccc23)NC(=O)CN)c(OC)c1 [2-amino-N-[(1R)-1-{4-[(2,4-dimethoxyphenyl)methyl]-5-[2-(1H-indol-3-yl)ethyl]-4H-1,2,4-triazol-3-yl}-2-(1H-indol-3-yl)ethyl]acetamide]
- Kb (pH 7.3, 25 °C): 27 nM

SMILES: O=C(N[C@H](Cc1c[nH]c2ccccc12)c1nnc(CCc2ccccc2)n1-c1ccccc1)C1CCNCC1 [N-[(1R)-2-(1H-indol-3-yl)-1-[4-phenyl-5-(2-phenylethyl)-4H-1,2,4-triazol-3-yl]ethyl]piperidine-4-carboxamide]
- IC50: 468 nM

SMILES: COc1ccc(Cn2c(CCc3c[nH]c4ccccc34)nnc2[C@@H](Cc2c[nH]c3ccccc23)NC(=O)[C@@H]2CCCN2)c(OC)c1
- Kb (pH 7.3, 25 °C): 11 nM

SMILES: COc1ccc(Cn2c(CCc3c[nH]c4ccccc34)nnc2[C@@H](Cc2c[nH]c3ccccc23)NC(=O)C2CNCCN2)c(OC)c1 (mixture of isomers) [N-[(1R)-1-{4-[(2,4-dimethoxyphenyl)methyl]-5-[2-(1H-indol-3-yl)ethyl]-4H-1,2,4-triazol-3-yl}-2-(1H-indol-3-yl)ethyl]piperazine-2-carboxamide]
- Kb: 5 nM

SMILES: O=C(N[C@H](Cc1c[nH]c2ccccc12)c1nnc(CCc2ccccc2)n1-c1ccccc1)[C@@H]1CCCN1 [(2S)-N-[(1R)-2-(1H-indol-3-yl)-1-[4-phenyl-5-(2-phenylethyl)-4H-1,2,4-triazol-3-yl]ethyl]pyrrolidine-2-carboxamide]
- IC50 (pH 7.3, 25 °C): > 1000 nM

Results, then the compound that gave them:

- EC50: 8.7 nM
SMILES: COc1ccc(Cn2c(CCc3c[nH]c4ccccc34)nnc2[C@@H](Cc2c[nH]c3ccccc23)NC(=O)C2CNCCN2)cc1 (stereo partly drawn) [N-[(1R)-2-(1H-indol-3-yl)-1-{5-[2-(1H-indol-3-yl)ethyl]-4-[(4-methoxyphenyl)methyl]-4H-1,2,4-triazol-3-yl}ethyl]piperazine-2-carboxamide]

- IC50 (pH 7.3, 25 °C): 113 nM
SMILES: COc1ccc(Cn2c(CCc3ccccc3)nnc2[C@@H](Cc2c[nH]c3ccccc23)NC(=O)[C@H](C)N)cc1 [(S)-N-((R)-1-(4-(4-Methoxybenzyl)-5-phenethyl-4H-1,2,4-triazol-3-yl)-2-(1H-indol-3-yl)ethyl)-2-aminopropanamide]

- IC50: 375 nM
SMILES: CCc1ccc(Cn2c(CCc3ccccc3)nnc2[C@@H](Cc2c[nH]c3ccccc23)NC(=O)[C@H]2CCCCN2)cc1 [(2R)-N-[(1R)-1-{4-[(4-ethylphenyl)methyl]-5-(2-phenylethyl)-4H-1,2,4-triazol-3-yl}-2-(1H-indol-3-yl)ethyl]piperidine-2-carboxamide]

- Kb: 8 nM
SMILES: COc1ccc(Cn2c(CCc3c[nH]c4ccccc34)nnc2[C@@H](Cc2c[nH]c3ccccc23)NC(=O)[C@H]2CCCCN2)cc1 [(2R)-N-[(1R)-2-(1H-indol-3-yl)-1-{5-[2-(1H-indol-3-yl)ethyl]-4-[(4-methoxyphenyl)methyl]-4H-1,2,4-triazol-3-yl}ethyl]piperidine-2-carboxamide]

- EC50 (pH 7.3, 25 °C): 256 nM
SMILES: COc1ccc(Cn2c(CCc3ccccc3)nnc2[C@@H](Cc2c[nH]c3ccccc23)NC(=O)CCN)cc1 [3-amino-N-[(1R)-2-(1H-indol-3-yl)-1-{4-[(4-methoxyphenyl)methyl]-5-(2-phenylethyl)-4H-1,2,4-triazol-3-yl}ethyl]propanamide]

- IC50: 6 nM
- Kb: 51 nM
SMILES: COc1ccc(Cn2c(CCc3ccccc3)nnc2[C@@H](Cc2c[nH]c3ccccc23)NC(=O)C2CCOCC2)cc1 [N-[(1R)-2-(1H-indol-3-yl)-1-{4-[(4-methoxyphenyl)methyl]-5-(2-phenylethyl)-4H-1,2,4-triazol-3-yl}ethyl]oxane-4-carboxamide]

- Kb (pH 7.3, 25 °C): 32 nM
SMILES: COc1ccc(Cn2c(CCc3ccccc3)nnc2[C@@H](Cc2c[nH]c3ccccc23)NC(=O)[C@@H]2CCCN2)c(OC)c1 [(2S)-N-[(1R)-1-{4-[(2,4-dimethoxyphenyl)methyl]-5-(2-phenylethyl)-4H-1,2,4-triazol-3-yl}-2-(1H-indol-3-yl)ethyl]pyrrolidine-2-carboxamide]

- IC50: 134 nM
SMILES: COc1ccc(Cn2c(CCc3ccccc3)nnc2[C@@H](Cc2c[nH]c3ccccc23)NC(=O)[C@H]2CCCCN2)c(OC)c1 [(2R)-N-[(1R)-1-{4-[(2,4-dimethoxyphenyl)methyl]-5-(2-phenylethyl)-4H-1,2,4-triazol-3-yl}-2-(1H-indol-3-yl)ethyl]piperidine-2-carboxamide]

- Kb (pH 7.3, 25 °C): 24 nM
SMILES: COc1ccc(Cn2c(CCc3ccccc3)nnc2[C@@H](Cc2c[nH]c3ccccc23)NC(=O)[C@@H](N)Cc2ccccc2)cc1 [(2S)-2-amino-N-[(1R)-2-(1H-indol-3-yl)-1-{4-[(4-methoxyphenyl)methyl]-5-(2-phenylethyl)-4H-1,2,4-triazol-3-yl}ethyl]-3-phenylpropanamide]

- Kb (pH 7.3, 25 °C): 7 nM
SMILES: COc1ccc(Cn2c(CCc3c[nH]c4ccccc34)nnc2[C@@H](Cc2c[nH]c3ccccc23)NC(=O)[C@H]2CCCN2)cc1 [(2R)-N-[(1R)-2-(1H-indol-3-yl)-1-{5-[2-(1H-indol-3-yl)ethyl]-4-[(4-methoxyphenyl)methyl]-4H-1,2,4-triazol-3-yl}ethyl]pyrrolidine-2-carboxamide]

- IC50 (pH 7.3, 25 °C): 490 nM
SMILES: CCc1ccc(Cn2c(CCc3ccccc3)nnc2[C@@H](Cc2c[nH]c3ccccc23)NC(=O)[C@@H]2CCCN2)cc1 [(2S)-N-[(1R)-1-{4-[(4-ethylphenyl)methyl]-5-(2-phenylethyl)-4H-1,2,4-triazol-3-yl}-2-(1H-indol-3-yl)ethyl]pyrrolidine-2-carboxamide]

- Kb (pH 7.3, 25 °C): 6 nM
SMILES: COc1ccc(Cn2c(CCc3c[nH]c4ccccc34)nnc2[C@@H](Cc2c[nH]c3ccccc23)NC(=O)[C@@H]2CCCN2)cc1 [(2S)-N-[(1R)-2-(1H-indol-3-yl)-1-{5-[2-(1H-indol-3-yl)ethyl]-4-[(4-methoxyphenyl)methyl]-4H-1,2,4-triazol-3-yl}ethyl]pyrrolidine-2-carboxamide]

- IC50 (pH 7.3, 25 °C): 9.5 nM
- Kb (pH 7.3, 25 °C): 13 nM
SMILES: COc1ccc(Cn2c(CCc3ccccc3)nnc2[C@@H](Cc2c[nH]c3ccccc23)NC(=O)[C@@H]2CCCN2)cc1 [(2S)-N-[(1R)-2-(1H-indol-3-yl)-1-{4-[(4-methoxyphenyl)methyl]-5-(2-phenylethyl)-4H-1,2,4-triazol-3-yl}ethyl]pyrrolidine-2-carboxamide]
